Experiments:
Assay type in all cases: in vivo
barnyard grass [1] = assay: Test Example 3: weedkilling efficacy through soil treatment; F: barnyard grass; conditions: soil treatment
Summary of the method: (§1)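 Crop and weed responses were judged three weeks after a uniform surface spray of the water-diluted emulsion at the given g/ha rate. Seeds sat beneath about 1.5 cm of sterilized diluvial soil, and boxes stood in a greenhouse at 25 to 30° C.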

transplanted rice = assay: Test Example 1: preemergent weed treatment in the submerged state, effect on crop; a: transplanted rice
Summary of the method: (§2)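 Pre-emergence application onto floodwater (4 cm, alluvial soil) on the day of sowing, dose expressed as g/ha from diluted emulsion formulation. Weeds sown with 2.5-leaf transplanted rice as crop; plants held at 25–30 °C in greenhouse and scored against assessment criteria after 3 weeks.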

directly sown rice = assay: Test Example 3: soil treatment, effect on crop; b: directly sown rice; conditions: soil treatment
Summary of the method: as §1

birds-eye speedwell = assay: Test Example 3: weedkilling efficacy through soil treatment; p: birds-eye speedwell; conditions: soil treatment
Summary of the method: as §1

corn = assay: Test Example 3: soil treatment, effect on crop; c: corn; conditions: soil treatment
Summary of the method: as §1

Indian mallow = assay: Test Example 3: weedkilling efficacy through soil treatment; K: Indian mallow; conditions: soil treatment
Summary of the method: as §1

bulrush [2] = assay: Test Example 2: weedkilling efficacy, growth period weed treatment in the submerged state; B: bulrush
Summary of the method: (§3)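 Weeds treated at the 1-2 leaf stage by application of diluted emulsion onto floodwater (4 cm depth, alluvial soil) at specified g/ha. Grown in greenhouse at 25 to 30° C; herbicidal effect rated three weeks after treatment.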

redroot pigweed = assay: Test Example 3: weedkilling efficacy through soil treatment; L: redroot pigweed; conditions: soil treatment
Summary of the method: as §1

bulrush [3] = assay: Test Example 1: weedkilling efficacy, preemergent weed treatment in the submerged state; B: bulrush
Summary of the method: as §2

barnyard grass [4] = assay: Test Example 2: weedkilling efficacy, growth period weed treatment in the submerged state; A: barnyard grass
Summary of the method: as §3

beet = assay: Test Example 3: soil treatment, effect on crop; f: beet; conditions: soil treatment
Summary of the method: as §1

wild oat = assay: Test Example 3: weedkilling efficacy through soil treatment; G: wild oat; conditions: soil treatment
Summary of the method: as §1

oval-leafed pondweed [5] = assay: Test Example 1: weedkilling efficacy, preemergent weed treatment in the submerged state; C: oval-leafed pondweed
Summary of the method: as §2

catchweed = assay: Test Example 3: weedkilling efficacy through soil treatment; O: catchweed; conditions: soil treatment
Summary of the method: as §1

rapeseed = assay: Test Example 3: soil treatment, effect on crop; g: rapeseed; conditions: soil treatment
Summary of the method: as §1

wheat = assay: Test Example 3: soil treatment, effect on crop; e: wheat; conditions: soil treatment
Summary of the method: as §1

barnyard grass [6] = assay: Test Example 1: weedkilling efficacy, preemergent weed treatment in the submerged state; A: barnyard grass
Summary of the method: as §2

Italian ryegrass = assay: Test Example 3: weedkilling efficacy through soil treatment; I: Italian ryegrass; conditions: soil treatment
Summary of the method: as §1

soybean = assay: Test Example 3: soil treatment, effect on crop; d: soybean; conditions: soil treatment
Summary of the method: as §1

black-grass = assay: Test Example 3: weedkilling efficacy through soil treatment; H: black-grass; conditions: soil treatment
Summary of the method: as §1

fig-leafed goosefoot = assay: Test Example 3: weedkilling efficacy through soil treatment; M: fig-leafed goosefoot; conditions: soil treatment, treatment dosage 320 g/ha
Summary of the method: as §1

chickweed = assay: Test Example 3: weedkilling efficacy through soil treatment; N: chickweed; conditions: soil treatment
Summary of the method: as §1

green foxtail = assay: Test Example 3: weedkilling efficacy through soil treatment; E: green foxtail; conditions: soil treatment
Summary of the method: as §1

common wind-grass = assay: Test Example 3: weedkilling efficacy through soil treatment; J: common wind-grass; conditions: soil treatment
Summary of the method: as §1

oval-leafed pondweed [7] = assay: Test Example 2: weedkilling efficacy, growth period weed treatment in the submerged state; C: oval-leafed pondweed
Summary of the method: as §3

crabgrass = assay: Test Example 3: weedkilling efficacy through soil treatment; D: crabgrass; conditions: soil treatment
Summary of the method: as §1

## CC(C)(C(=O)Nc1nncs1)N1COCN(c2ccccc2)C1=O [A-1-12]
Barnyard grass [1]; treatment dosage 320 g/ha
  F: barnyard grass, weedkilling efficacy grade: 3 (weed kill ratio 40% or more, less than 70%)
Transplanted rice; treatment dosage 320 g/ha
  a: transplanted rice, effect on crop grade: 0 (weed kill ratio 5% or less (practically no effect))
Directly sown rice; treatment dosage 320 g/ha
  b: directly sown rice, effect on crop grade: 5 (weed kill ratio 90% or more, (practically complete withering))
birds-eye speedwell; treatment dosage 320 g/ha
  P: birds-eye speedwell, weedkilling efficacy grade: 3 (weed kill ratio 40% or more, less than 70%)
corn; treatment dosage 320 g/ha
  c: corn, effect on crop grade: 0 (weed kill ratio 5% or less (practically no effect))
Indian mallow; treatment dosage 320 g/ha
  K: Indian mallow, weedkilling efficacy grade: 0 (weed kill ratio 5% or less (practically no effect))
Bulrush [2]; treatment dosage 320 g/ha
  B (bulrush) weedkilling efficacy grade: 5 (weed kill ratio 90% or more, (practically complete withering))
Redroot pigweed; treatment dosage 320 g/ha
  L: redroot pigweed, weedkilling efficacy grade: 0 (weed kill ratio 5% or less (practically no effect))
Bulrush [3]; treatment dosage 320 g/ha
  B: bulrush, weed kill grade: 5 (weed kill ratio 90% or more, (practically complete withering))
Barnyard grass [4]; treatment dosage 320 g/ha
  A (barnyard grass) weedkilling efficacy grade: 1 (weed kill ratio 5% or more, less than 20%)
beet; treatment dosage 320 g/ha
  f: beet, effect on crop grade: 2 (weed kill ratio 20% or more, less than 40%)
Wild oat; treatment dosage 320 g/ha
  G: wild oat, weedkilling efficacy grade: 3 (weed kill ratio 40% or more, less than 70%)
oval-leafed pondweed [5]; treatment dosage 320 g/ha
  C: oval-leafed pondweed, weed kill grade: 4 (weed kill ratio 70% or more, less than 90%)
catchweed; treatment dosage 320 g/ha
  O: catchweed, weedkilling efficacy grade: 0 (weed kill ratio 5% or less (practically no effect))
rapeseed; treatment dosage 320 g/ha
  g: rapeseed, effect on crop grade: 0 (weed kill ratio 5% or less (practically no effect))
wheat; treatment dosage 320 g/ha
  e: wheat, effect on crop grade: 0 (weed kill ratio 5% or less (practically no effect))
Barnyard grass [6]; treatment dosage 320 g/ha
  A: barnyard grass, weed kill grade: 5 (weed kill ratio 90% or more, (practically complete withering))
Italian ryegrass; treatment dosage 320 g/ha
  I: Italian ryegrass, weedkilling efficacy grade: 5 (weed kill ratio 90% or more, (practically complete withering))
soybean; treatment dosage 320 g/ha
  d: soybean, effect on crop grade: 4 (weed kill ratio 70% or more, less than 90%)
black-grass; treatment dosage 320 g/ha
  H: black-grass, weedkilling efficacy grade: 5 (weed kill ratio 90% or more, (practically complete withering))
fig-leafed goosefoot
  M: fig-leafed goosefoot, weedkilling efficacy grade: 4 (weed kill ratio 70% or more, less than 90%)
chickweed; treatment dosage 320 g/ha
  N: chickweed, weedkilling efficacy grade: 3 (weed kill ratio 40% or more, less than 70%)
Green foxtail; treatment dosage 320 g/ha
  E: green foxtail, weedkilling efficacy grade: 5 (weed kill ratio 90% or more, (practically complete withering))
Common wind-grass; treatment dosage 320 g/ha
  J: common wind-grass, weedkilling efficacy grade: 5 (weed kill ratio 90% or more, (practically complete withering))
oval-leafed pondweed [7]; treatment dosage 320 g/ha
  C (oval-leafed pondweed) weedkilling efficacy grade: 3 (weed kill ratio 40% or more, less than 70%)

## CC(C)(C(=O)Nc1cc(Br)cc(F)n1)N1COCN(c2ccccc2)C1=O [A-2-19]
Barnyard grass [1]; treatment dosage 320 g/ha
  F: barnyard grass, weedkilling efficacy grade: 5 (weed kill ratio 90% or more, (practically complete withering))
Transplanted rice; treatment dosage 320 g/ha
  a: transplanted rice, effect on crop grade: 3 (weed kill ratio 40% or more, less than 70%)
Directly sown rice; treatment dosage 320 g/ha
  b: directly sown rice, effect on crop grade: 0 (weed kill ratio 5% or less (practically no effect))
birds-eye speedwell; treatment dosage 320 g/ha
  P: birds-eye speedwell, weedkilling efficacy grade: 4 (weed kill ratio 70% or more, less than 90%)
corn; treatment dosage 320 g/ha
  c: corn, effect on crop grade: 2 (weed kill ratio 20% or more, less than 40%)
Indian mallow; treatment dosage 320 g/ha
  K: Indian mallow, weedkilling efficacy grade: 0 (weed kill ratio 5% or less (practically no effect))
Bulrush [2]; treatment dosage 320 g/ha
  B (bulrush) weedkilling efficacy grade: 5 (weed kill ratio 90% or more, (practically complete withering))
Redroot pigweed; treatment dosage 320 g/ha
  L: redroot pigweed, weedkilling efficacy grade: 0 (weed kill ratio 5% or less (practically no effect))
Bulrush [3]; treatment dosage 320 g/ha
  B: bulrush, weed kill grade: 5 (weed kill ratio 90% or more, (practically complete withering))
Barnyard grass [4]; treatment dosage 320 g/ha
  A (barnyard grass) weedkilling efficacy grade: 5 (weed kill ratio 90% or more, (practically complete withering))
beet; treatment dosage 320 g/ha
  f: beet, effect on crop grade: 4 (weed kill ratio 70% or more, less than 90%)
Wild oat; treatment dosage 320 g/ha
  G: wild oat, weedkilling efficacy grade: 5 (weed kill ratio 90% or more, (practically complete withering))
oval-leafed pondweed [5]; treatment dosage 320 g/ha
  C: oval-leafed pondweed, weed kill grade: 5 (weed kill ratio 90% or more, (practically complete withering))
catchweed; treatment dosage 320 g/ha
  O: catchweed, weedkilling efficacy grade: 4 (weed kill ratio 70% or more, less than 90%)
rapeseed; treatment dosage 320 g/ha
  g: rapeseed, effect on crop grade: 5 (weed kill ratio 90% or more, (practically complete withering))
wheat; treatment dosage 320 g/ha
  e: wheat, effect on crop grade: 2 (weed kill ratio 20% or more, less than 40%)
Barnyard grass [6]; treatment dosage 320 g/ha
  A: barnyard grass, weed kill grade: 5 (weed kill ratio 90% or more, (practically complete withering))
Italian ryegrass; treatment dosage 320 g/ha
  I: Italian ryegrass, weedkilling efficacy grade: 5 (weed kill ratio 90% or more, (practically complete withering))
black-grass; treatment dosage 320 g/ha
  H: black-grass, weedkilling efficacy grade: 5 (weed kill ratio 90% or more, (practically complete withering))
fig-leafed goosefoot
  M: fig-leafed goosefoot, weedkilling efficacy grade: 4 (weed kill ratio 70% or more, less than 90%)
chickweed; treatment dosage 320 g/ha
  N: chickweed, weedkilling efficacy grade: 5 (weed kill ratio 90% or more, (practically complete withering))
crabgrass; treatment dosage 320 g/ha
  D: crabgrass, weedkilling efficacy grade: 5 (weed kill ratio 90% or more, (practically complete withering))
Green foxtail; treatment dosage 320 g/ha
  E: green foxtail, weedkilling efficacy grade: 5 (weed kill ratio 90% or more, (practically complete withering))
Common wind-grass; treatment dosage 320 g/ha
  J: common wind-grass, weedkilling efficacy grade: 5 (weed kill ratio 90% or more, (practically complete withering))
oval-leafed pondweed [7]; treatment dosage 320 g/ha
  C (oval-leafed pondweed) weedkilling efficacy grade: 5 (weed kill ratio 90% or more, (practically complete withering))

## COc1cc(Cl)nc(NC(=O)C(C)(C)N2COCN(c3ccccc3)C2=O)c1 [A-2-33]
Barnyard grass [1]; treatment dosage 315 g/ha
  F: barnyard grass, weedkilling efficacy grade: 4 (weed kill ratio 70% or more, less than 90%)
Transplanted rice; treatment dosage 315 g/ha
  a: transplanted rice, effect on crop grade: 4 (weed kill ratio 70% or more, less than 90%)
Directly sown rice; treatment dosage 315 g/ha
  b: directly sown rice, effect on crop grade: 3 (weed kill ratio 40% or more, less than 70%)
birds-eye speedwell; treatment dosage 315 g/ha
  P: birds-eye speedwell, weedkilling efficacy grade: 5 (weed kill ratio 90% or more, (practically complete withering))
corn; treatment dosage 315 g/ha
  c: corn, effect on crop grade: 0 (weed kill ratio 5% or less (practically no effect))
Indian mallow; treatment dosage 315 g/ha
  K: Indian mallow, weedkilling efficacy grade: 0 (weed kill ratio 5% or less (practically no effect))
Bulrush [2]; treatment dosage 315 g/ha
  B (bulrush) weedkilling efficacy grade: 5 (weed kill ratio 90% or more, (practically complete withering))
Redroot pigweed; treatment dosage 315 g/ha
  L: redroot pigweed, weedkilling efficacy grade: 2 (weed kill ratio 20% or more, less than 40%)
Bulrush [3]; treatment dosage 315 g/ha
  B: bulrush, weed kill grade: 5 (weed kill ratio 90% or more, (practically complete withering))
Barnyard grass [4]; treatment dosage 315 g/ha
  A (barnyard grass) weedkilling efficacy grade: 5 (weed kill ratio 90% or more, (practically complete withering))
beet; treatment dosage 315 g/ha
  f: beet, effect on crop grade: 1 (weed kill ratio 5% or more, less than 20%)
Wild oat; treatment dosage 315 g/ha
  G: wild oat, weedkilling efficacy grade: 4 (weed kill ratio 70% or more, less than 90%)
oval-leafed pondweed [5]; treatment dosage 315 g/ha
  C: oval-leafed pondweed, weed kill grade: 5 (weed kill ratio 90% or more, (practically complete withering))
catchweed; treatment dosage 315 g/ha
  O: catchweed, weedkilling efficacy grade: 5 (weed kill ratio 90% or more, (practically complete withering))
rapeseed; treatment dosage 315 g/ha
  g: rapeseed, effect on crop grade: 3 (weed kill ratio 40% or more, less than 70%)
wheat; treatment dosage 315 g/ha
  e: wheat, effect on crop grade: 0 (weed kill ratio 5% or less (practically no effect))
Barnyard grass [6]; treatment dosage 315 g/ha
  A: barnyard grass, weed kill grade: 5 (weed kill ratio 90% or more, (practically complete withering))
Italian ryegrass; treatment dosage 315 g/ha
  I: Italian ryegrass, weedkilling efficacy grade: 5 (weed kill ratio 90% or more, (practically complete withering))
soybean; treatment dosage 315 g/ha
  d: soybean, effect on crop grade: 0 (weed kill ratio 5% or less (practically no effect))
black-grass; treatment dosage 315 g/ha
  H: black-grass, weedkilling efficacy grade: 5 (weed kill ratio 90% or more, (practically complete withering))
chickweed; treatment dosage 315 g/ha
  N: chickweed, weedkilling efficacy grade: 4 (weed kill ratio 70% or more, less than 90%)
crabgrass; treatment dosage 315 g/ha
  D: crabgrass, weedkilling efficacy grade: 5 (weed kill ratio 90% or more, (practically complete withering))
Green foxtail; treatment dosage 315 g/ha
  E: green foxtail, weedkilling efficacy grade: 5 (weed kill ratio 90% or more, (practically complete withering))
Common wind-grass; treatment dosage 315 g/ha
  J: common wind-grass, weedkilling efficacy grade: 5 (weed kill ratio 90% or more, (practically complete withering))
oval-leafed pondweed [7]; treatment dosage 315 g/ha
  C (oval-leafed pondweed) weedkilling efficacy grade: 5 (weed kill ratio 90% or more, (practically complete withering))

From patent US9738634B2, “Heterocyclic amide compound and herbicide” (SYNGENTA PARTICIPATIONS AG, priority 2013, dated 2017)
